{
  "source": "patent US10865203B2",
  "about": "“Ligands selective to alpha 6 subunit-containing GABAA receptors and their methods of use” (UWM Research Foundation, Inc., priority 2015, dated 2020)",
  "key": {"[1]": {"test_system": "αxβx, αxβ3γ2 and αβδ receptors", "assay": "Electrophysiology in Xenopus oocytes, functional screening over all tested receptors", "type": "cell-based, rat", "protocol": "Mature female Xenopus laevis (Nasco, Fort Atkinson, Wis., USA) were anaesthetized in a bath of ice-cold 0.17% Tricain (Ethyl-m-aminobenzoat, Sigma-Aldrich, St. Louis, Mo., USA) before decapitation and transfer of the frog's ovary to ND96 medium (96 mM NaCl, 2 mM KCl, 1 mM MgCl2, 5 mM HEPES; pH 7.5). Following incubation in 1 mg/mL collagenase (Sigma-Aldrich, St. Louis, Mo., USA) for 30 min, stage 5 to 6 oocytes were singled out of the ovary and defolliculated using a platinum wire loop. Oocytes were stored and incubated at 18° C. in NDE medium (96 mM NaCl, 2 mM KCl, 1 mM MgCl2, 5 mM HEPES, 1.8 mM CaCl2; pH 7.5) that was supplemented with 100 U per mL-1 penicillin, 100 μg per mL-1 streptomycin and 2.5 mM pyruvate. Oocytes were injected with an aqueous solution of mRNA. A total of 2.5 ng of mRNA per oocyte was injected. […] Maximum currents measured in mRNA injected oocytes were in the microampere range for all receptor subtypes. […] Data were digitized using a Digidata 1322A or 1550 data acquisition system (Axon Instruments, Union City, Calif., USA), recorded using Clampex 10.5 software (Molecular Devices, Sunnyvale, Calif., USA), and analyzed using Clampfit 10.5 and GraphPad Prism 6.0 (La Jolla, Calif., USA) software. […]\nFor selected test compounds full dose response curves were recorded in α1-6β3γ2 receptors. […]"}, "[2]": {"assay": "Microsomal stability assay, mouse liver microsomes", "type": "in vitro ADME", "details": "10 μM test compound, 0.5 mg/mL protein, 37° C.", "protocol": "(§1) 4 μL of 1 mM test compound at a final concentration of 10 μM dissolved in DMSO/ACN/Methanol/Ethanol was preincubated at 37° C. for 5 minutes on a digital heating shaking dry bath (Fischer scientific, Pittsburgh, Pa.) in a mixture containing 282 μL of water, 80 μL of phosphate buffer (0.5 M, pH 7.4), 20 μL of NADPH Regenerating System Solution A (BD Bioscience, San Jose, Calif.) and 4 μL of NADPH Regenerating System Solution B (BD Bioscience, San Jose, Calif.) in a total volume of 391.2 μL. Following preincubation, the reaction was initiated by addition of 8.8 μL of either human liver microsomes (BD Gentest, San Jose, Calif.), mouse liver microsomes (Life technologies, Rockford, Ill.), at a protein concentration of 0.5 mg/mL. Aliquots of 50 μL were taken at time intervals of 0 (without microsomes), 10, 20, 30, 40, 50 and 60 minutes. Each aliquot was added to 100 μL of cold acetonitrile solution containing 1 μM/2 μM internal standard. This was followed by sonication for 10 seconds and centrifugation at 10,000 rpm for 5 minutes. 100 μL of the supernatant was transferred into Spin-X HPLC filter tubes (Corning Incorporated, NY) and centrifuged at 13,000 rpm for 5 minutes. […] The ratio of the peak areas of the internal standard and test compound was calculated for every time point and the natural log of the ratio were plotted against time to determine the linear slope (k). […] All experiments were repeated three times in duplicates."}, "[3]": {"assay": "Microsomal stability assay, human liver microsomes", "type": "in vitro ADME", "details": "10 μM test compound, 0.5 mg/mL protein, 37° C.", "protocol": "as §1"}, "[4]": {"test_system": "GABA-A receptors, including α6 GABA-ARs", "assay": "Modulation of GABA-A receptors by constituent of Cl leaves"}},
  "note": "“Also recorded” adds a separate entry of the source.",
  "data": [
    {"smiles": "[2H]C([2H])([2H])Oc1ccccc1-n1nc2c3cc(Cl)ccc3[nH]cc-2c1=O", "note": "[DK-I-87-1, 8-Chloro-2-(2-methoxy-d3-phenyl)-2,5-dihydro-3H-pyrazolo[4,3-c]quinolin-3-one]", "values": [
      {"measurement": "activity in all tested receptors", "setting": "[1]", "result": "inactive in all receptors that were tested so far; also recorded: essentially inactive in all tested receptors"},
      {"measurement": "% left after 1 hr. (MLM)", "setting": "[2]", "result": "94.91 ± 0.10", "unit": "%"},
      {"measurement": "Half-life (min) (MLM)", "setting": "[2]", "result": "993 ± 189", "unit": "min"},
      {"measurement": "% left after 1 hr. (HLM)", "setting": "[3]", "result": "94.7 ± 0.07", "unit": "%"}
    ]},
    {"smiles": "COc1ccccc1-n1nc2c3cc(Cl)ccc3[nH]cc-2c1=O", "note": "[LAU 165, 8-Chloro-2-(2-methoxyphenyl)-2H-pyrazolo[4,3-c]quinolin-3(5H)-one]", "values": [
      {"measurement": "activity in all tested receptors", "setting": "[1]", "result": "inactive in all receptors that were tested so far; also recorded: essentially inactive in all tested receptors"}
    ]},
    {"smiles": "COc1c(O)cc2oc(-c3ccc(O)cc3)cc(=O)c2c1O", "note": "[hispidulin]", "values": [
      {"measurement": "modulation of GABA-A receptors", "setting": "[4]", "result": "positive allosteric modulator"}
    ]}
  ]
}
